The conditions of series [1]: 1.5 T, 37° C., Invest Radiol. 2005, cited from earlier work; for r1 plasma: bovine plasma instead of human plasma.
Series [2] concerns freshly isolated rat hepatocytes. Kind of series: Uptake into freshly isolated rat hepatocytes. Type of series: cell-based. Particulars: for Inhibition Rifampicine: uptake with OATP1B1/1B3 inhibitor Rifampicine 1:1, each 100 uM. The method, then:
Freshly isolated rat hepatocytes were received as described before (Papeleu P. et al. (2006) Isolation of Rat Hepatocytes. In: Phillips I. R., Shephard E. A. (eds) Cytochrome P450 Protocols. Methods in Molecular Biology, vol 320. Humana Press, Totowa, NJ. https://doi.org/10.1385/1-59259-998-2:229). The rat hepatocytes were incubated (2.5·10^5 cells/well) for 2.5 to 4 h in collagen coated 24-well plates (Fa. Beckton Dickinson Biocoat, cell environments, Collagen I Cellware) in Williams E-medium (Fa. Sigma W1878) in an incubator (37° C., 5% CO2 and […]). After incubation the adherent hepatocytes were washed once with 37° C. Hepes carbonate transport buffer (500 μL/well). The test items and RC3 were prepared from stock solutions (180 to 500 mM concentration) in Hepes carbonate transport buffer at pH 7.4 to reach a final concentration of 100 μmol Gd/L. The specific uptake of the test item or RC3 into rat hepatocytes via OATP1B1 and OATP1B3 was challenged using a known OATP1B1/1B3 inhibitor (Rifampicine, Fa. Sigma R3501, test item and inhibitor 1:1 each 100 µM final concentration). The prepared rat hepatocyte plates were incubated with test solutions (500 μL/well) at 37° C. for 10 min using a thermoshaker (Fa. Grant Bio, PHMP). Triplicates were performed for each test item. After incubating the cells were washed once with cold PBS buffer (Fa. Gibco, Dulbeccos PBS (+)). After washing the intact hepatocytes were lysed by addition of 500 μL cold 0.01% Triton-X 100 in Millipore water for 1 h. The strongly hypo-osmolar water led to cell membrane rupture and the release of the intracellular Gd-compound. After 1 h 500 μL of 10 nM Terbium ICP-MS standard was added in 2% nitric acid and 0.01% Triton 100 before the Gadolinium concentrations in the lysate were measured using ICP-MS (Agilent 8900, singleQuad, integr. Time 0.3 s, no gas, 5 replicates, Gd m/z 157, Tb m/z 159). As a reference standard RC3 is used in the same well plate. The hepatocyte uptake of the test compound is calculated relative to RC3 (resulting in the unit % of RC3).

For series [3] the following is noted: 37° C., from Robic et al. Invest Radiol. 2019, cited from earlier work.
The nature of series [4]: Relaxivity measurements at 1.41 T in water and human plasma. In kind it is physicochemical. Particulars: 37° C., normalized to Gd. As for the experimental part: Relaxivity measurements at 1.41 T were performed using a MiniSpec mq60 spectrometer (Bruker Analytik, Karlsruhe, Germany) operating at a resonance frequency of 60 MHz and a temperature of 37° C. The T1 relaxation times were determined using the standard inversion recovery (IR) method with a fixed relaxation delay of at least 5×T1. The variable inversion time (TI) was calculated automatically by the standard software of the MiniSpec mq60 (8 steps). The T2 measurements were performed by using a Carr-Purcell-Meiboom-Gill (CPMG) pulse sequence, applying a relaxation delay of at least 5×T1.
Each relaxivity measurement was performed using three different Gd concentrations (3 concentrations between 0.05 and 2 mM). The T1 and T2 relaxation times of the example compounds were measured in water and human plasma. Human plasma preparation: For each experiment fresh blood was taken from a volunteer using 10 mL citrate-tubes (Sarstedt S-Monovette 02.1067.001, 10 mL, Citrate). The 10 mL citrate-tubes were carefully inverted 10 times to mix blood and anticoagulant and centrifuged for 15 min at 1811 g at RT (Eppendorf, Centrifuge 5810R).
The relaxivities ri (where i=1, 2) were calculated based on the measured relaxation rates Ri in water and plasma:
where Ri(0) represent the relaxation rate of the respective solvent and CGd the concentration of the compound normalized to the Gadolinium. The Gadolinium concentrations of the investigated solutions were verified by Inductively Coupled Plasma Mass Spectrometry (ICP-MS Agilent 7500a, Waldbronn, Germany).

Here are results for ten molecules from patent publication US20260077069A1, “COMBINATIONS OF CONTRAST AGENTS” (BAYER AKTIENGESELLSCHAFT, priority 2022, published 2026).

Read-outs that look alike come from different tables or passages of the source. Marks after values point to notes of the source that are not given here.

In the case of `O=C([O-])CN(CCN(CC(=O)[O-])CC(=O)[O-])CCN(CC(=O)[O-])C(COCc1ccccc1)C(=O)[O-].[Gd+3].[H+].[H+]` (stereo not shown) [RC 4, gadobenic acid, reference compound], in series [1], the r1 plasma was 6.3^# L·mmol^−1·s^−1 and the r1 water is on record as 4.0^# L·mmol^−1·s^−1. Further, the Uptake rat hepatocytes in series [2] (100 μmol Gd/L, 10 min, 37° C., Gd in lysate by ICP-MS, relative to RC3) is reported as 9 % of RC3. Further, the “Inhibition Rifampicine” value in series [2] is on record as 79 % inhibition.
Turning to `CCOc1ccc(CC(CN(CCN(CC(=O)[O-])CC(=O)[O-])CC(=O)[O-])N(CC(=O)[O-])CC(=O)[O-])cc1.[Gd+3].[Na+].[Na+]` (stereo not shown) [RC 3, gadoxetate disodium], in series [1], the r1 plasma is listed as 6.9^# L·mmol^−1·s^−1 and the r1 water is listed as 4.7^# L·mmol^−1·s^−1. In addition, the “Inhibition Rifampicine” value in series [2] is 97 % inhibition.
For `O=C(CCC(C(=O)[O-])N1CCN(C(CCC(=O)NCC(O)CO)C(=O)[O-])Cc2cccc(n2)CN(C(CCC(=O)NCC(O)CO)C(=O)[O-])CC1)NCC(O)CO.[Gd+3]` (stereo not shown) [Compound 11], the r1 human plasma in series [3] (human plasma) is on record as 12.8** L·mmol^−1·s^−1. The r1 water in series [3] (water) was 12.2** L·mmol^−1·s^−1.
On to `O=C([O-])CN1CCN(CC(=O)[O-])CCN([C@H](CO)[C@H](O)CO)CCN(CC(=O)[O-])CC1.[Gd+3]` (racemic) [RC 1, gadobutrol], for which, in series [1], the r1 plasma is given as 3.6^# L·mmol^−1·s^−1 and the r1 water is on record as 2.9^# L·mmol^−1·s^−1.
As to `CNC[C@H](O)[C@@H](O)[C@H](O)[C@H](O)CO.O=C([O-])CN1CCN(CC(=O)[O-])CCN(CC(=O)O)CCN(CC(=O)[O-])CC1.[Gd+3]` [RC 2, gadoterate meglumine], in series [1], the r1 plasma is listed as 5.2^# L·mmol^−1·s^−1 and the r1 water is 3.3^# L·mmol^−1·s^−1.
For `CCOCCOCCOc1ccc(CC(C(=O)[O-])N2CCN(CC(=O)[O-])CCN(C(CC)C(=O)[O-])CCN(CC(=O)O)CC2)cc1.[Gd+3]` (stereo not shown) [Compound 20], in series [4], the r1 human plasma was determined as 6.9 L/mmol/s and the r1 water turned out to be 4.8 L/mmol/s. In addition, the “Inhibition Rifampicine” value in series [2] is 97 % inhibition.
Take `CCCCOc1cccc(CCC[C@@H](C(=O)O)N2CCN([C@@H](CO)C(=O)[O-])CCN([C@@H](CO)C(=O)[O-])CCN([C@@H](CO)C(=O)[O-])CC2)c1.[Gd+3]` [Compound 19]: in series [4], the r1 human plasma was found to be 18.0 L/mmol/s and the r1 water was 4.9 L/mmol/s. Further, the “Inhibition Rifampicine” value in series [2] stood at 90 % inhibition.
In series [4], `O=C([O-])CN1CCN(CC(=O)[O-])CCN(C(Cc2ccc(OCC(F)(F)C(F)F)cc2)C(=O)[O-])CCN(CC(=O)O)CC1.[Gd+3]` (stereo not shown) [Compound 21] had a r1 human plasma of 10.8 L/mmol/s and a r1 water of 3.5 L/mmol/s. The “Inhibition Rifampicine” value in series [2] is given as 90 % inhibition.
In series [4], `CCCCOc1ccc(CC2CN(CC(=O)[O-])CCN(CC(=O)[O-])CCN(CC(=O)O)CCN2CC(=O)[O-])cc1.[Gd+3]` (stereo not shown) [Compound 24] returned a r1 human plasma of 9.8 L/mmol/s and a r1 water of 5.3 L/mmol/s. The “Inhibition Rifampicine” value in series [2] came out at 86 % inhibition.
As for `CCOCCOc1ccc(CC(C(=O)[O-])N2CCN(CC(=O)[O-])CCN(C(CC)C(=O)O)CCN(CC(=O)[O-])CC2)cc1.[Gd+3]` (stereo not shown) [Compound 13], in series [4], the r1 human plasma worked out at 7.4 L/mmol/s and the r1 water turned out to be 4.5 L/mmol/s. Moreover, the “Inhibition Rifampicine” value in series [2] is given as 99 % inhibition.
